Read-outs that look alike come from different tables or passages of the source.
Assay: PP-LFER solute descriptor determination from GC retention and partition coefficient data
Format: physicochemical
Conditions: for Solute descriptor S (dipolarity/polarizability parameter): final adjusted value, shared within a PFAS group
From the text: The GC columns used were, from low to high polarity, HP-5ms Ultra Inert (poly[5% phenyl/95% methyl]siloxane equivalent; Agilent Technologies, Santa Clara, CA), DB-200 (poly[35% trifluoropropyl/65% methyl]siloxane; Agilent Technologies), DB-225ms (poly[50% cyanopropylphenyl/50% methyl]siloxane equivalent; Agilent Technologies), and SolGel-WAX (polyethylene glycol; Trajan, Ringwood, Australia). Column dimensions were all 30 m × 0.25 mm i.d. with a coating thickness of 0.25 μm.
The method for GC retention time measurements follows that of a previous study.[18] Briefly, a 7890A/5975C GC/MS instrument (Agilent Technologies) equipped with an MPS2 autosampler and CIS4 injector (Gerstel, Mülheim an der Ruhr, Germany) was used for all measurements. For each column, isothermal retention times were measured at four temperatures in the range of 30–120 °C to cover all target compounds. The temperature at the injector and transfer line was fixed at 120 °C. The carrier gas was He at a flow rate of 1.2 mL/min. Compounds were introduced into the GC by injecting either headspace (100–250 μL) above the pure compound or solution in acetone (1 μL). Split injections were performed with a split ratio of 20–250. Column dead time (t0) was determined by injecting air and measuring Ar (m/z 40). From the measured retention time (t), the retention factor (k) was calculated as k = (t–t0)/t0. Measurements with t < t0 + 0.1 min were considered too short and discarded. For each column and temperature, k values were obtained for 29–52 PFAS and 29–48 reference compounds.
The standard procedure for solute descriptor determination was as follows. First, the system parameters in eq 1 were calibrated for each column (or partition system) and temperature by MLR using log k (or log K) data and solute descriptors for reference compounds. Dimethylformamide, 1-pentylamine, dimethylsulfoxide, and dodecamethylcyclohexasiloxane (D6) were removed from the log k data sets, because they frequently appeared as outliers (>3 SD) of the PP-LFER model fit. Reference data sets for hexadecane/water partition coefficients (KHxd/w),[21]Kow,[22] and octanol/air partition coefficients (Koa)[23] were taken from the cited references and amended with data for organosilicon compounds.[24],[25] Similar to PFAS, organosilicon compounds have weak van der Waals interaction properties[9] and it may be beneficial to include them in reference data sets. The solute descriptors for PFAS were then back-calculated by using the calibrated PP-LFER equations. Of the five descriptors, V can be calculated from the molecular structure[26] (note: the fragment value for F from Goss et al.[11] was used), and L was available for the PFAS studied.[18] Thus, the left side of eq 2 was known, and MLR was performed to obtain S, A, and B on the right side. [drawing 2] 2 To determine the three descriptors, a minimum of three k and K data are required for a given PFAS compound. The data used here were: k measured for 60 PFAS in this study, KHxd/w for 21 PFAS,[5]Kow for 12 PFAS (see the Results and Discussion section), and Koa for 3 PFAS.[11]
Key to the accurate determination of the polar interaction descriptors is the availability of K data for partition systems with water as a partition phase because water is a strong H-bond donor and acceptor phase and thus the corresponding K values are sensitive to the H-bonding properties of the solute.[27] In particular, at least one solvent/water or air/water partition coefficient is required to determine B because there is no commonly used GC phase that is a significant H-bond donor. In the data set, KHxd/w is sensitive to both A and B and Kow is sensitive to B. However, KHxd/w and Kow data are not available for all PFAS. To increase the number of PFAS for which descriptors can be determined, the following assumptions were made. […]

[1] = 25 °C, updated in the iterative calculation

Row | SMILES | Solute descriptor L (logarithmic hexadecane/air partition coefficient, KHxd/air) | Solute descriptor S (dipolarity/polarizability parameter) | Solute descriptor L (logarithmic hexadecane/air partition coefficient, KHxd/air) [1]
1 | FC(OC(F)(F)C(F)(OC(F)(F)C(F)(OC(F)(F)C(F)(OC(F)(F)C(F)(F)C(F)(F)F)C(F)(F)F)C(F)(F)F)C(F)(F)F)C(F)(F)F (stereo not shown) [FE-E4, 1,1,1,2,4,4,5,7,7,8,10,10,11,13,13,14,14,15,15 ,15-Eicosafluoro-5,8,11-tris(trifluoromethyl)-3,6,9,12-tetraoxapentadecane] | 2.542 | -0.55 | –
2 | CN(CCO)S(=O)(=O)C(F)(F)C(F)(F)C(F)(F)C(F)(F)C(F)(F)C(F)(F)C(F)(F)C(F)(F)F [MeFOSE, N-Methylperfluorooctanesulfonamidoethanol] | 5.909 | 1.00 | –
3 | CNS(=O)(=O)C(F)(F)C(F)(F)C(F)(F)C(F)(F)C(F)(F)C(F)(F)C(F)(F)C(F)(F)F [MeFOSA, N-Methylperfluorooctanesulfonamide] | – | 0.88 | 4.703
4 | C=CCOCC(F)(F)C(F)(F)C(F)(F)C(F)(F)C(F)(F)C(F)(F)C(F)(F)F [AFOE, Allyl 1H,1H-perfluorooctyl ether] | – | 0.30 | 3.584
5 | C=C(C)C(=O)OCCC(F)(F)C(F)(F)C(F)(F)C(F)(F)C(F)(F)C(F)(F)F [6:2 FTMAC, 1H,1H,2H,2H-Perfluorooctyl methacrylate] | – | 0.53 | 4.553
6 | FC(F)(F)C(F)(F)C(F)(F)C(F)(F)C(F)(F)C(F)(F)CCI [6:2 FTI, 1H,1H,2H,2H-Perfluorooctyl iodide] | – | 0.32 | 3.892
7 | FC(OC(F)(F)C(F)(OC(F)(F)C(F)(OC(F)(F)C(F)(OC(F)(F)C(F)(OC(F)(F)C(F)(F)C(F)(F)F)C(F)(F)F)C(F)(F)F)C(F)(F)F)C(F)(F)F)C(F)(F)F (stereo not shown) [FE-E5, 1,1,1,2,4,4,5,7,7,8,10,10,11,13,13,14,16,16,17 ,17,18,18,18-Tricosafluoro-5,8,11,14-tetrakis(trifluoromethyl)-3,6,9,12,15-pentaoxaoctadecane] | 3.128 | -0.81 | –
8 | C=CCOC(F)(C(F)(F)F)C(F)(F)F [APFIPE, Allyl perfluoroisopropyl ether] | – | 0.15 | 1.717
9 | FC(F)(F)C(F)(F)C(F)(F)C(F)(F)I [PFBI, Perfluorobutyl iodide] | – | 0.07 | 1.939
10 | C=CC(=O)OCCC(F)(F)C(F)(F)C(F)(F)C(F)(F)C(F)(F)C(F)(F)C(F)(F)C(F)(F)C(F)(F)C(F)(F)F [10:2 FTAC, 1H,1H,2H,2H-Perfluorododecyl acrylate] | 5.221 | 0.54 | –
11 | C=CC(F)(F)C(F)(F)C(F)(F)C(F)(F)C(F)(F)C(F)(F)C(F)(F)C(F)(F)C(F)(F)C(F)(F)F [10:2 FTO, 1H,1H,2H-Perfluoro-1-dodecene] | 3.031 | 0.11 | –
12 | FC(F)(F)C(F)(F)C(F)(F)C(F)(F)C(F)(F)C(F)(F)I [PFHxI, Perfluorohexyl iodide] | – | 0.07 | 2.508
13 | FC(F)(F)C(F)(I)OC(F)(F)C(F)(F)C(F)(F)F (stereo not shown) [FE-E1-I, 1-(Heptafluoropropoxy)-1,2,2,2-tetrafluoro-1-iodoethane] | – | 0.06 | 1.937
14 | FC(F)(F)C(F)(F)C(F)(F)C(F)(F)C(F)(F)C(F)(F)C(F)(F)C(F)(F)C(F)(F)C(F)(F)C(F)(F)C(F)(F)F [PFDoD, Perfluorododecane] | 2.362 | -0.19 | –
15 | O=S(=O)(F)C(F)(F)C(F)(F)C(F)(F)C(F)(F)F [PFBSF, Perfluorobutanesulfonyl fluoride] | – | 0.16 | 1.278
16 | CNS(=O)(=O)C(F)(F)C(F)(F)C(F)(F)C(F)(F)C(F)(F)C(F)(F)F [MeFHxSA, N-Methylperfluorohexanesulfonamide] | – | 0.88 | 4.135
17 | C=CC(F)(F)C(F)(F)C(F)(F)C(F)(F)C(F)(F)C(F)(F)C(F)(F)C(F)(F)C=C [1,8-DVPFO, 1,8-Divinylperfluorooctane] | – | 0.44 | 3.927
18 | C=C(C)C(=O)OCCC(F)(F)C(F)(F)C(F)(F)C(F)(F)C(F)(F)C(F)(F)C(F)(F)C(F)(F)C(F)(F)C(F)(F)F [10:2 FTMAC, 1H,1H,2H,2H-Perfluorododecyl methacrylate] | 5.671 | 0.53 | –
19 | C=CC(=O)OCCC(F)(F)C(F)(F)C(F)(F)C(F)(F)C(F)(F)C(F)(F)C(F)(F)C(F)(F)F [8:2 FTAC, 1H,1H,2H,2H-Perfluorodecyl acrylate] | – | 0.54 | 4.661
20 | NS(=O)(=O)C(F)(F)C(F)(F)C(F)(F)C(F)(F)C(F)(F)C(F)(F)C(F)(F)C(F)(F)F [PFOSA, Perfluorooctanesulfonamide] | 4.744 | 0.96 | –
21 | FC(F)(F)C(F)(F)C(F)(F)C(F)(F)C(F)(F)C(F)(F)C(F)(F)C(F)(F)C(F)(F)C(F)(F)I [PFDI, Perfluorodecyl iodide] | 3.623 | 0.07 | –
22 | FC(F)(F)C(F)(F)C(F)(F)C(F)(F)C(F)(F)C(F)(F)C(F)(F)C(F)(F)C(F)(F)C(F)(F)CCI [10:2 FTI, 1H,1H,2H,2H-Perfluorododecyl iodide] | 5.020 | 0.32 | –
23 | FC(OC(F)(F)C(F)(OC(F)(F)C(F)(OC(F)(F)C(F)(F)C(F)(F)F)C(F)(F)F)C(F)(F)F)C(F)(F)F (stereo not shown) [FE-E3, 1,1,1,2,2,3,3-Heptafluoro-3-[(1,1,1,2,3,3-hexafluoro-3-{[1,1,1,2,3,3-hexafluoro-3-(1,2,2,2-tetrafluoroethoxy)-2-propanyl]oxy}-2-propanyl)oxy]propane] | 1.899 | -0.33 | –
24 | OCc1ccc(CCC(F)(F)C(F)(F)C(F)(F)C(F)(F)C(F)(F)C(F)(F)F)cc1 [6:2 FTBnOH, 4-(1H,1H,2H,2H-Perfluorooctyl)benzyl alcohol] | – | 0.75 | 6.656
25 | C=CC(F)(F)C(F)(F)C(F)(F)C(F)(F)C(F)(F)C(F)(F)C(F)(F)C(F)(F)F [8:2 FTO, 1H,1H,2H-Perfluoro-1-decene] | – | 0.11 | 2.504
26 | C=Cc1ccc(C(F)(F)C(F)(F)C(F)(F)C(F)(F)C(F)(F)C(F)(F)C(F)(F)C(F)(F)F)cc1 [PFOSt, 4-(Perfluorooct-1-yl)styrene] | 5.645 | 0.32 | –

Reference: PMC10653080, “Intermolecular Interactions, Solute Descriptors, and Partition Properties of Neutral Per- and Polyfluoroalkyl Substances (PFAS)” (Environmental Science & Technology, 2023)
